For orientation: IC50 means the concentration that gives 50% inhibition.

SMILES strings stand for the structures.

The target of the assay is T1, Angiotensin II receptor (Rattus norvegicus, UniProt P29089+P25095+P35351).
T1 sequence (P29089 whole entry): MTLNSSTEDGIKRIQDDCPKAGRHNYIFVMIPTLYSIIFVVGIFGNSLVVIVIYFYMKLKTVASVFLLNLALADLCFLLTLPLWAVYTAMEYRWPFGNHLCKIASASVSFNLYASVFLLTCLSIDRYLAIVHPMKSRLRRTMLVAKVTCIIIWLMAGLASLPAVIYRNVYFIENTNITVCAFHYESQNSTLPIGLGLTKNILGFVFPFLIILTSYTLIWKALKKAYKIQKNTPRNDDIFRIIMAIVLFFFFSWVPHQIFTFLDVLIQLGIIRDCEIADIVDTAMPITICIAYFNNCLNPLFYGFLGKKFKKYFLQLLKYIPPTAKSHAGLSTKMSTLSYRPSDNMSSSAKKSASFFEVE
T1 sequence (P25095 whole entry): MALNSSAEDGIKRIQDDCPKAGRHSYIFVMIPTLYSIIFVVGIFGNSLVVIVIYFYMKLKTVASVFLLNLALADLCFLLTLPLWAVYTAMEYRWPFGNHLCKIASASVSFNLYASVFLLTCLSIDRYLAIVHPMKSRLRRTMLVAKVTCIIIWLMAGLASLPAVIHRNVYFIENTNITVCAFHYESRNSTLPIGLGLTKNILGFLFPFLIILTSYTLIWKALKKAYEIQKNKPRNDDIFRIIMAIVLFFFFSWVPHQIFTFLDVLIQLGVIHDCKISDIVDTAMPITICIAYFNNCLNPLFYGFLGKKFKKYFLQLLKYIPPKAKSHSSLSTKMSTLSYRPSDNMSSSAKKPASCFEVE
T1 sequence (P35351 whole entry): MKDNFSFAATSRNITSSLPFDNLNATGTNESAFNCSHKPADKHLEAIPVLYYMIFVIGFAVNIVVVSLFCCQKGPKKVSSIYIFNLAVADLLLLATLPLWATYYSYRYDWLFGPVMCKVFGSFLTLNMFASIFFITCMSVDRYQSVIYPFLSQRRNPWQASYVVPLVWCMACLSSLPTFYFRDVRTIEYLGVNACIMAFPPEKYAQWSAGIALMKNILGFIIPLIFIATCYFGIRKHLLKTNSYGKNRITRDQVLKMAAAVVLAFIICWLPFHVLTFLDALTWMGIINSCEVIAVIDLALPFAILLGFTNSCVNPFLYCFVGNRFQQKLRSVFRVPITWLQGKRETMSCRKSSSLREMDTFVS
In words: Displacement of [3H]-AII from the Angiotensin II receptor isolated from the liver of rats. On the technique in general: Displacement assays read how much labelled ligand stays bound in the presence of the test substance.
For `Cc1nc(Sc2ccc(-c3ccccc3-c3nn[nH]n3)cc2)c2cc[nH]c2n1`, the IC50 is more than 10000 nM.
As for `CCc1cc(Sc2ccc(-c3ccccc3-c3nn[nH]n3)cc2)c2ncccc2n1`, the IC50 came to 20 nM.
The molecule `Cc1nc(Sc2ccc(-c3ccccc3-c3nn[nH]n3)cc2)c2ccccc2n1` yielded an IC50 of 350 nM.
As to `Cc1cc(SCc2ccc(-c3ccccc3-c3nn[nH]n3)cc2)c2ccccc2n1`, the IC50 was determined as 370 nM. This IC50 and that of the molecule before are within 1.5-fold of each other.
For `Cc1cc(CCc2ccc(-c3ccccc3-c3nn[nH]n3)cc2)c2ccccc2n1` the value was 270 nM; for `Cc1cc(S(=O)(=O)c2ccc(-c3ccccc3-c3nn[nH]n3)cc2)c2ccccc2[n+]1[O-]`, more than 10000 nM.
For `Cc1cc(OCc2ccc(-c3ccccc3-c3nn[nH]n3)cc2)c2ccccc2n1` the value was 31 nM; for `Cc1cc(Sc2ccc(-c3ccccc3-c3nnn(C(c4ccccc4)(c4ccccc4)c4ccccc4)n3)cc2)c2ccccc2n1`, 4700 nM.

Values taken from ChEMBL document CHEMBL1128193, “4-(Heteroarylthio)-2-biphenylyltetrazoles as nonpeptide angiotensin II antagonists” (J Med Chem, 1995).
